Legend:
[1] = test system: patients présentant une artériopathie oblitérante périphérique aux stades cliniques IIa et IIb; test: Clinical trial: pain-free walking distance on treadmill before and after six weeks of isovolemic then hypervolemic hemodilution; assay type: in vivo
Source text: Cet exemple décrit un essai clinique effectué sur deux groupes A et B de 9 patients présentant une artériopathie oblitérante périphérique aux stades cliniques IIa et IIb. Tous ces patients présentaient des oblitérations d'un ou plusieurs jours ou des microangiopathies des membres inférieurs. En outre, la fluidité du sang de ces patients était trés limitée.
Les patients du groupe A (âge moyen: 60 ans) reçoivent un traitement combiné par dilution isovolémique et dilution hypervolémique au moyen de HES 200 (poids moléculaire 200.000) et de piracétam.
A cet effet, en 4 à 5 séances, on prélève chaque fois 500 ml de sang que l'on remplace par une perfusion isovolémique de 500 ml d'une solution aqueuse stérile à 10% de HES 200 contenant 12 g de piracétam. Le rapport en poids entre le HES 200 et le piracétam est donc de 4,1 : 1.
Entre chaque séance de perfusion isovolémique s'écoule un intervalle de 2 à 3 jours pendant lequel les patients reçoivent 12 g de piracétam par jour sous forme d'une suspension buvable.
Ensuite, on administre trois fois par semaine, en perfusion hypervolémique, 500 ml de la solution à 10% de HES 200 contenant 12 g de piracétam.
Le groupe B constitue le groupe témoin et les patients de ce groupe (âge moyen: 60 ans) reçoivent le même traitement, mais sans addition de piracétam.

[2] = test system: patients présentant une artériopathie oblitérante périphérique aux stades cliniques IIa et IIb; test: Clinical trial: hemorheological parameters (blood fluidity, erythrocyte aggregation); assay type: in vivo; settings: after treatment; piracétam given together with HES 200
Source text: Parallèlement au traitement, on a déterminé avant et après celui-ci la fluidité du sang des patients étudiés.
Cet exemple décrit un essai clinique effectué sur deux groupes A et B de 9 patients présentant une artériopathie oblitérante périphérique aux stades cliniques IIa et IIb. […] En outre, la fluidité du sang de ces patients était trés limitée.
Dans les deux groupes de patients, on a également suivi l'évolution de divers paramètres hémorhéologiques.

Structure (SMILES): NC(=O)CN1CCCC1=O [piracétam, 2-oxo-1-pyrrolidineacétamide]
- temps de claudication et douleurs ([1]; 12 g piracétam added to 500 ml of 10% HES 200): nette diminution
- distance moyenne de marche sans douleur ([1]; 12 g piracétam added to 500 ml of 10% HES 200, versus the same without piracétam): augmente de manière trés significative
- fluidité du sang [2]: la meilleure

— patent EP0243336A1, “Pharmaceutical compositions for the treatment of intermittent claudication” (U C B, S.A., priority 1986, dated 1987)
